PubChem BioAssay (NCI)
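Exposure lasted 48 hours, with cells grown in 96-well plates and compounds tested at five concentrations. GI50 = concentration required for 50% inhibition of growth. Definition used: TGI = concentration required for complete inhibition of growth.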

Experiments:
Assay in all cases: NCI tumour cell line growth inhibition, 48 h
[1] = tested on: SNB-19 CNS
[2] = tested on: NCI-H522 lung
[3] = tested on: ACHN renal
[4] = tested on: U251 CNS
[5] = tested on: UACC-257 melanoma
[6] = tested on: UO-31 renal
[7] = tested on: HCT-116 colon
[8] = tested on: COLO 205 colon
[9] = tested on: TK-10 renal
[10] = tested on: CCRF-CEM leukemia
[11] = tested on: A549 NSCLC
[12] = tested on: MDA-MB-435
[13] = tested on: SW-620 colon
[14] = tested on: EKVX NSCLC
[15] = tested on: RXF 393 renal
[16] = tested on: NCI-H460 lung
[17] = tested on: M14 melanoma
[18] = tested on: NCI-H23 lung
[19] = tested on: HCC-2998 colon
[20] = tested on: K-562 leukemia
[21] = tested on: OVCAR-3 ovarian
[22] = tested on: 786-0 renal
[23] = tested on: SF-295 CNS
[24] = tested on: MCF7 breast
[25] = tested on: SK-MEL-5 melanoma
[26] = tested on: OVCAR-5 ovarian
[27] = tested on: SF-268 CNS
[28] = tested on: MDA-N
[29] = tested on: KM12 colon
[30] = tested on: HT29 colon
[31] = tested on: HS 578T breast
[32] = tested on: OVCAR-8 ovarian
[33] = tested on: SK-MEL-2 melanoma
[34] = tested on: SNB-75 CNS
[35] = tested on: LOX IMVI melanoma
[36] = tested on: RPMI-8226 leukemia
[37] = tested on: HL-60(TB) leukemia
[38] = tested on: MOLT-4 leukemia
[39] = tested on: OVCAR-4 ovarian
[40] = tested on: HOP-92 NSCLC
[41] = tested on: SK-MEL-28 melanoma
[42] = tested on: IGROV1 ovarian
[43] = tested on: MDA-MB-231 breast
[44] = tested on: CAKI-1 renal
[45] = tested on: HOP-62 NSCLC
[46] = tested on: HCT-15 colon
[47] = tested on: SK-OV-3 ovarian
[48] = tested on: A498 renal
[49] = tested on: BT-549 breast
[50] = tested on: DU-145 prostate
[51] = tested on: NCI/ADR-RES ovarian
[52] = tested on: PC-3 prostate
[53] = tested on: NCI-H226 lung
[54] = tested on: MALME-3M melanoma
[55] = tested on: UACC-62 melanoma
[56] = tested on: SN12C renal
[57] = tested on: SF-539 CNS
[58] = tested on: SR leukemia
[59] = tested on: T-47D breast

CCN(CC)c1ccc2c(c1)OC(=O)C(c1nnc(-c3ccc([N+](=O)[O-])cc3)o1)C2 (centres undefined)
TGI [1]: > 100 µM
TGI [2]: > 100 µM
TGI [3]: > 100 µM
TGI [4]: > 100 µM
TGI [5]: > 100 µM
TGI [6]: > 100 µM
TGI [7]: > 100 µM
TGI [8]: > 100 µM
TGI [9]: > 100 µM
TGI [10]: > 100 µM
TGI [11]: > 100 µM
TGI [12]: > 100 µM
TGI [13]: > 100 µM
TGI [14]: > 100 µM
TGI [15]: > 100 µM
TGI [16]: > 100 µM
TGI [17]: > 100 µM
TGI [18]: > 100 µM
TGI [19]: > 100 µM
TGI [20]: > 100 µM
TGI [21]: > 100 µM
TGI [22]: > 100 µM
TGI [23]: > 100 µM
TGI [24]: > 100 µM
TGI [25]: > 100 µM
TGI [26]: > 100 µM
TGI [27]: > 100 µM
TGI [28]: > 100 µM
TGI [29]: > 100 µM
TGI [30]: > 100 µM
TGI [31]: > 100 µM
TGI [32]: > 100 µM
TGI [33]: > 100 µM
TGI [34]: > 100 µM
TGI [35]: > 100 µM
TGI [36]: > 100 µM
TGI [37]: > 100 µM
TGI [38]: > 100 µM
TGI [39]: > 100 µM
TGI [40]: > 100 µM
TGI [41]: > 100 µM
TGI [42]: > 100 µM
TGI [43]: > 100 µM
TGI [44]: > 100 µM
TGI [45]: > 100 µM
TGI [46]: > 100 µM
TGI [47]: > 100 µM
TGI [48]: > 100 µM
TGI [49]: > 100 µM
TGI [50]: > 100 µM
TGI [51]: > 100 µM
TGI [52]: > 100 µM
TGI [53]: > 100 µM
TGI [54]: > 100 µM
TGI [55]: > 100 µM

O=C(CBr)N1CCC2(CC1)SSC1(CCN(C(=O)CBr)CC1)S2
TGI [1]: 3.48 µM
TGI [3]: 2.87 µM
TGI [5]: 12.9 µM
TGI [6]: 2.01 µM
TGI [7]: 1.29 µM
TGI [8]: 1.13 µM
TGI [11]: 3.95 µM
TGI [12]: 4.48 µM
TGI [13]: 1.21 µM
TGI [16]: 3.48 µM
TGI [17]: 2.86 µM
TGI [18]: 3.13 µM
TGI [20]: > 100 µM
TGI [22]: 1.81 µM
TGI [23]: 3.51 µM
TGI [26]: 3.03 µM
TGI [28]: 2.81 µM
TGI [31]: 4.29 µM
TGI [32]: 4.62 µM
TGI [56]: 3.71 µM
TGI [41]: 4.55 µM
TGI [43]: 4.57 µM
TGI [46]: 2.96 µM
TGI [47]: 2.71 µM
TGI [51]: 4.32 µM
TGI [52]: 3.38 µM
TGI [55]: 2.96 µM
TGI [57]: 3.09 µM

CN(CCC#N)c1ccc(/C=C(\C#N)c2cccc(C(F)(F)F)c2)cc1
GI50 [1]: 17 µM
TGI [1]: > 100 µM
GI50 [3]: 4.13 µM
TGI [3]: > 100 µM
GI50 [4]: 3.75 µM
TGI [4]: > 100 µM
GI50 [58]: 2.52 µM
TGI [58]: > 100 µM
GI50 [6]: 2.27 µM
TGI [6]: > 100 µM
GI50 [7]: 3.21 µM
TGI [7]: > 100 µM
GI50 [8]: 3.81 µM
TGI [8]: > 100 µM
GI50 [9]: 3.12 µM
TGI [9]: > 100 µM
GI50 [12]: 2.07 µM
TGI [12]: 6 µM
GI50 [13]: 3.17 µM
TGI [13]: > 100 µM
GI50 [15]: 3.75 µM
TGI [15]: > 100 µM
GI50 [16]: 3.76 µM
TGI [16]: > 100 µM
GI50 [17]: 3.51 µM
TGI [17]: > 100 µM
GI50 [18]: 3.86 µM
TGI [18]: > 100 µM
GI50 [19]: 5.08 µM
TGI [19]: > 100 µM
GI50 [20]: 2.69 µM
TGI [20]: > 100 µM
GI50 [21]: 4.29 µM
TGI [21]: > 100 µM
GI50 [22]: 4.15 µM
TGI [22]: > 100 µM
GI50 [23]: 3.87 µM
TGI [23]: > 100 µM
GI50 [24]: 0.544 µM
TGI [24]: > 100 µM
GI50 [25]: 3.23 µM
TGI [25]: 30.5 µM
GI50 [26]: 6.73 µM
TGI [26]: > 100 µM
GI50 [27]: 6.66 µM
TGI [27]: > 100 µM
GI50 [29]: 2.97 µM
TGI [29]: > 100 µM
GI50 [30]: 2.58 µM
TGI [30]: 11.3 µM
GI50 [31]: 4.3 µM
TGI [31]: > 100 µM
GI50 [32]: 3.99 µM
TGI [32]: > 100 µM
GI50 [33]: 2.57 µM
TGI [33]: 8.11 µM
GI50 [34]: 4.47 µM
TGI [34]: > 100 µM
GI50 [35]: 3.75 µM
TGI [35]: > 100 µM
GI50 [36]: 3.63 µM
TGI [36]: > 100 µM
GI50 [37]: 3 µM
TGI [37]: > 100 µM
GI50 [38]: 3.06 µM
TGI [38]: > 100 µM
GI50 [59]: 2.25 µM
TGI [59]: > 100 µM
GI50 [56]: 4.17 µM
TGI [56]: > 100 µM
GI50 [39]: 4.71 µM
TGI [39]: > 100 µM
GI50 [40]: 3.01 µM
TGI [40]: 66.7 µM
GI50 [41]: 6.4 µM
TGI [41]: > 100 µM
GI50 [42]: 4.95 µM
TGI [42]: > 100 µM
GI50 [43]: 4.56 µM
TGI [43]: > 100 µM
GI50 [44]: 4.24 µM
TGI [44]: > 100 µM
GI50 [45]: 6.2 µM
TGI [45]: > 100 µM
GI50 [46]: 3.14 µM
TGI [46]: > 100 µM
GI50 [47]: 36.7 µM
TGI [47]: > 100 µM
GI50 [48]: 1.44 µM
TGI [48]: 8.89 µM
GI50 [49]: 3.28 µM
TGI [49]: 34.3 µM
GI50 [50]: 11.3 µM
TGI [50]: > 100 µM
GI50 [51]: 3.68 µM
TGI [51]: > 100 µM
GI50 [52]: 4.07 µM
TGI [52]: > 100 µM
GI50 [53]: 6.02 µM
TGI [53]: > 100 µM
GI50 [54]: 3.59 µM
TGI [54]: > 100 µM
GI50 [55]: 3.96 µM
TGI [55]: > 100 µM
GI50 [57]: 4.31 µM
TGI [57]: > 100 µM
